Entries after “also recorded” stand apart in the source; their conditions may differ. Where a name gives a salt, the structure may show the parent alone.
Experiments:
female Ae. aegypti = test: Human arm bite protection assay; assay type: in vivo, Aedes aegypti; conditions: for MED values Female 10: as E30, volunteer one; for MED values Female 9: as E30, volunteer two; for MED Mean: mean of three human volunteers; for MED values Male 4: minimum amount preventing 99% of bites, treated cloth patch, 1 min in cage, mixtures with TFA 0.047 or TCA 0.094 mg/cm^2
Procedure: A human bite protection assay was performed according to see if the repellency observed in glass tubes extended to bite protection. The assay was run in accordance with that of Tsikolia et al. (Tsikolia M, Bernier UR, Coy M, Chalaire K, Becnel J, Agramonte N, Tabanca N, Wedge D, Clark G, Linthicum K, Swale D, and J. R. Bloomquist J (2013) Insecticidal and fungicidal properties of novel trifluoromethylphenyl amides. Pestic. Biochem. Physiol. 107, 138-147). Treated cloth patches were worn by human volunteers and the number of blood fed mosquitoes was determined after 1 min spent in a cage with 500 (±10%) female Ae. aegypti. Minimum Effective Dosage (MED in mg/cm^2) is the minimum amount required to prevent 99% of bites in three human volunteers (UF IRB #201602334). Synergist ratio (SR)=MED chemical alone/MED chemical+TFA (0.047 mg/cm^2) or TCA (0.094 mg/cm^2).

[1] = test system: Orlando insecticide-susceptible strain of Ae. aegypti (female mosquitoes); test: Glass tube spatial repellency assay; assay type: in vivo, Aedes aegypti; conditions: for repellency EC50 (+TFA): applied as mixture with TFA (50 μg/cm^2); for repellency EC50 (+TFA) / repellency EC50 / effect of TFA on repellency, applied as mixture: 1 hr; for repellency EC50 / spatial repellency in screening / repellency at highest concentration tested (words): compound alone; for synergist ratio SR (EC50 compound alone/EC50 compound+TFA): TFA 50 μg/cm^2 as mixture; for spatial repellency in screening: 100 μg/cm^2, 1 hr exposure; for effect of TFA on repellency, applied as mixture: TFA 50 μg/cm^2 + EC20 of test compound (permethrin 30 μg/cm^2); for repellency at highest concentration tested (words): 1-2 mg/cm^2; for 15 min repellency ratio / 30 min repellency ratio / 1 hr repellency ratio: horizontal tube, 0.5=0% repellency, 0=100% repellency; for EC50 (95% CL), repellency of TFA esters: 1 hr exposures, Ae. aegypti females; for effect of TFA on repellency, applied side-by-side: TFA 50 μg/cm^2 side-by-side, DEET 18 μg/cm^2; for synergism of repellency with citronella: citronella at its EC20 (20 μg/cm^2)
Procedure: (§1) The following assay was conducted according to the procedures of Jiang et al., 2019 (Jiang S., Yang L, and Bloomquist J (2019) High-throughput screening method for evaluating spatial repellency and vapor toxicity to mosquitoes. Med. Vet. Entomol.). For assessing behavioral repellency (FIG. 1), sixteen female Aedes aegypti mosquitoes were transferred to a glass tube (12.5 cm long, 2.5 cm outer diameter) with the ends covered with netting. Metofluthrin, bifenthrin, permethrin, pyrethrum, transfluthrin, deltamethrin, esfenvalerate, metofluthrin acid, bifenthrin acid, phenothrin acid, transchryanthemic acid, transfluthrin acid, deltamethrin acid, and fenvalerate acid were each dissolved in 1 mL of acetone and serial dilutions ranging from 30-0.01 μg/ml were made. Circular filter papers (5 cm^2) were saturated with 50 μL of each concentration and allowed 10 min for solvent evaporation. The filter papers were then placed in clear conical polypropylene caps and fixed to the end of the glass tubes. The netting prevented mosquito contact with the filter paper. Tubes were then aligned with a mark denoting the midline and the proportion of mosquitoes on the chemically treated side was scored at 15, 30, and 60 min. At the end of the test, the tube was placed in a cage and the ability of the mosquitoes to fly out of the tube was assessed for 30 min. […] This post-test evaluated whether any non-responding mosquitoes (not repelled) was due to intoxication or disorientation from the test chemical. For vapor toxicity, the assay was identical, except that mosquitoes were kept in the tube for 24 hr without the post-test at 1 hr, and the mortality was recorded at 24 hr.

[2] = test system: insecticide-susceptible Aedes aegypti (Orlando strain) females; test: Glass tube vapor toxicity assay (24 hr mortality); conditions: horizontal tube
Procedure: as §1
Synergism ratio (SR)=LC50 pyrethroid/LC50 pyrethroid+EO.

| Compound | MED values Female 10 (female Ae. aegypti) | MED values Female 9 (female Ae. aegypti) | MED Mean (female Ae. aegypti) | MED values Male 4 (female Ae. aegypti) | repellency EC50 (+TFA) [1] | repellency EC50 [1] | synergist ratio SR (EC50 compound alone/EC50 compound+TFA) ([1]; repellency) | also measured |
| --- | --- | --- | --- | --- | --- | --- | --- | --- |
| CC/C=C\C[C@H]1C(=O)CC[C@@H]1CC(=O)OC [methyl jasmonate, Methyl (1R,2R)-3-Oxo-2-(2Z)-2-pentenyl-cyclopentaneacetate] | 0.75 mg/cm^2 | 0.75 mg/cm^2 | >1 mg/cm^2 | >1.5 mg/cm^2 | 6 μg/cm^2 | 39 μg/cm^2 | 6.5 | – |
| CC1(C)C(C=C(Cl)Cl)C1C(=O)OCc1cccc(Oc2ccccc2)c1 (stereo not drawn) [permethrin, 3-phenoxybenzyl 3-(β,β-dichlorovinyl)-2,2-dimethylcyclopropanecarboxylate, reference compound] | 0.187 mg/cm^2 | 0.187 mg/cm^2 | 0.187 mg/cm^2 | 0.187 mg/cm^2 | 9.5 μg/cm^2 | >1000 μg/cm^2 | >105 | spatial repellency in screening [1]: inactive as vapor phase repellents; effect of TFA on repellency, applied as mixture [1]: some spatial repellency; repellency at highest concentration tested (words) [1]: repellency was not observed; repellency at highest concentration tested (words) ([1]; listed as Permethrin): inactive |
| O=Cc1cccc(Oc2ccccc2)c1 [3-phenoxybenzaldehyde] | 0.750 mg/cm^2 | >0.75 mg/cm^2 | >0.75 mg/cm^2 | >0.75 mg/cm^2 | – | – | – | – |
| OCc1c(F)c(F)cc(F)c1F [TF-OH, transfluthrin alcohol] | – | – | – | – | 41 μg/cm^2 | 80 μg/cm^2 | about 2 | spatial repellency in screening [1]: significant repellency |
| O=Cc1cccc(-c2ccccc2)c1 [biphenyl-3-carboxaldehyde] | – | – | – | – | – | – | – | 24 hr mort (%) ([2]; 10 μg/cm^2): 50.0%; 24 hr mort (%) ([2]; 100 μg/cm^2): 6.3%; 15 min repellency ratio ([1]; 10 μg/cm^2): 0.44; 30 min repellency ratio ([1]; 10 μg/cm^2): 0.38; 1 hr repellency ratio ([1]; 10 μg/cm^2): 0.38; 15 min repellency ratio ([1]; 100 μg/cm^2): 0.44; 30 min repellency ratio ([1]; 100 μg/cm^2): 0.31; 1 hr repellency ratio ([1]; 100 μg/cm^2): 0.19 |
| CC1(C)[C@H](C(=O)O[C@H](C#N)c2cccc(Oc3ccccc3)c2)[C@@H]1C=C(Br)Br [deltamethrin, Deltamethrin, reference compound] | – | – | – | – | – | – | – | spatial repellency in screening [1]: inactive as vapor phase repellents |
| CC1(C)[C@H](C=C(Cl)Cl)[C@H]1C(=O)OC1CCCC1 [GMR 124, Cyclopentyl (1R,3S)-3-(2,2-dichlorovinyl)-2,2-dimethylcyclopropane-1-carboxylate] | – | – | – | – | – | – | – | EC50 (95% CL), repellency of TFA esters [1]: 11 (8-15) μg/cm^2 |
| CCCCN(CCC(=O)OCC)C(C)=O [IR3535, ethyl butylacetylaminopropionate] | 0.047 mg/cm^2 | 0.047 mg/cm^2 | 0.063 mg/cm^2 | 0.094 mg/cm^2 | – | – | – | effect of TFA on repellency, applied as mixture [1]: no statistically significant effect |
| CCCCCOC(=O)[C@@H]1[C@@H](C=C(Cl)Cl)C1(C)C [GMR 120, nPentyl (1R,3S)-3-(2,2-dichlorovinyl)-2,2-dimethylcyclopropane-1-carboxylate] | – | – | – | – | – | – | – | EC50 (95% CL), repellency of TFA esters [1]: 10 (7-15) μg/cm^2 |
| α, α, α-trifluoromethyltolualdehyde | – | – | – | – | – | – | – | 24 hr mort (%) ([2]; 10 μg/cm^2): 0.0%; 24 hr mort (%) ([2]; 100 μg/cm^2): 0.0%; 15 min repellency ratio ([1]; 10 μg/cm^2): 0.38; 30 min repellency ratio ([1]; 10 μg/cm^2): 0.44; 1 hr repellency ratio ([1]; 10 μg/cm^2): 0.31; 15 min repellency ratio ([1]; 100 μg/cm^2): 0.38; 30 min repellency ratio ([1]; 100 μg/cm^2): 0.50; 1 hr repellency ratio ([1]; 100 μg/cm^2): 0.63 |
| CCCCCCCCCC(C)=O [2-undecanone] | 0.375 mg/cm^2 | 0.187 mg/cm^2 | 0.219 mg/cm^2 | 0.094 mg/cm^2 | 5.1 μg/cm^2 | 59 μg/cm^2 | 11.6 | – |
| CCN(CC)C(=O)c1cccc(C)c1 [DEET, N,N-diethyl-m-toluamide, reference compound] | 0.011 mg/cm^2 | 0.011 mg/cm^2 | 0.011 mg/cm^2 | 0.011 mg/cm^2 | 26 μg/cm^2 | 39 μg/cm^2 | 1.5 | effect of TFA on repellency, applied as mixture [1]: no statistically significant effect; effect of TFA on repellency, applied side-by-side [1]: synergistic effect was observed; repellency EC50 +TFA(S) ([1]; TFA (50 μg/cm^2) applied side-by-side on halves of the filter): 8.1 μg/cm^2; synergism of repellency with citronella [1]: did not synergize; fold decrease of EC50 by TFA side-by-side ([1]; repellency, TFA 50 μg/cm^2 side-by-side treatment): ~5 fold |
| CC1(C)[C@H](C=C(Cl)Cl)[C@H]1C(=O)OC1CCC1 [GMR 125, Cyclobutyl (1R,3S)-3-(2,2-dichlorovinyl)-2,2-dimethylcyclopropane-1-carboxylate] | – | – | – | – | – | – | – | EC50 (95% CL), repellency of TFA esters [1]: 17 (11-27) μg/cm^2 |
| Cc1c(COC(=O)C2C(/C=C(/Cl)C(F)(F)F)C2(C)C)cccc1-c1ccccc1 (stereo not shown) [bifenthrin, Bifenthrin, reference compound] | – | – | – | – | – | – | – | spatial repellency in screening [1]: some repellency at high exposure |
| benzyloxybenzaldehyde | – | – | – | – | – | – | – | 15 min repellency ratio ([1]; 10 μg/cm^2): 0.69; 30 min repellency ratio ([1]; 10 μg/cm^2): 0.69; 1 hr repellency ratio ([1]; 10 μg/cm^2): 0.63; 15 min repellency ratio ([1]; 100 μg/cm^2): 0.69; 30 min repellency ratio ([1]; 100 μg/cm^2): 0.81; 1 hr repellency ratio ([1]; 100 μg/cm^2): 0.44 |
| Cc1cccc(C(N)=O)c1 [m-toluamide] | – | – | – | – | – | – | – | 15 min repellency ratio ([1]; 10 μg/cm^2): 0.50; 30 min repellency ratio ([1]; 10 μg/cm^2): 0.50; 1 hr repellency ratio ([1]; 10 μg/cm^2): 0.38; 15 min repellency ratio ([1]; 100 μg/cm^2): 0.19; 30 min repellency ratio ([1]; 100 μg/cm^2): 0.31; 1 hr repellency ratio ([1]; 100 μg/cm^2): 0.06 |
| CC1(C)[C@H](C=C(Cl)Cl)[C@H]1C(=O)OC1CC1 [GMR 126, Cyclopropyl (1R,3S)-3-(2,2-dichlorovinyl)-2,2-dimethylcyclopropane-1-carboxylate] | – | – | – | – | 0.35 μg/cm^2 | 8.5 μg/cm^2 | 24 | EC50 (95% CL), repellency of TFA esters [1]: 8.5 (5-13) μg/cm^2 |
| COCc1c(F)c(F)c(CO)c(F)c1F [metofluthrin alcohol] | – | – | – | – | – | – | – | synergism of repellency with GMR 134 ([1]; alcohol 100 μg/cm^2 mixed with GMR 134 at 2 μg/cm^2): significantly synergized |
| CC1(C)C(C=C(Cl)Cl)C1C(=O)O (stereo not shown) [TFA, transfluthrin acid] | 0.094 mg/cm^2 | 0.187 mg/cm^2 | 0.156 mg/cm^2 | 0.187 mg/cm^2 | – | – | – | repellency of TFA by itself ([1]; TFA alone, 50 μg/cm^2 and higher): no repellent activity by itself; also recorded: no effect; also recorded: inactive by itself; synergism of repellency with citronella [1]: strong positive response; also recorded: Synergistic interactions were discovered |
| CCc1ccc(NC(=O)CSc2nnc(-c3cccnc3)n2CC)cc1 [VUAA-1, 2-(4-Ethyl-5-(pyridin-3-yl)-4H-1,2,4-triazol-3-ylthio)-N-(4-ethylphenyl)acetamide, reference compound] | – | – | – | – | 30 μg/cm^2 | >2000 μg/cm^2 | >67 | effect of TFA on repellency, applied side-by-side [1]: synergism disappeared; repellency EC50 +citronella ([1]; co-applied citronella at its EC20 (20 μg/cm^2)): 34 μg/cm^2; repellency at highest concentration tested (words) [1]: inactive; also recorded: repellency was not observed |
| O=Cc1ccccc1 [benzaldehyde, reference compound] | – | – | – | – | 15 μg/cm^2 | 118 μg/cm^2 | 8 | – |

From patent US20220304307A1, “SYNERGISTIC MIXTURES FOR ARTHROPOD TOXICITY AND REPELLENCY” (University of Florida Research Foundation, Incorporated, priority 2019, published 2022)
